According to patent publication US7112581B2, “Macrocyclic lactams” (Nereus Pharmaceuticals, Inc., priority 2002, dated 2006):
“And” between values parts separate entries of the source, which are not always exact repeats. Equal values may be shown once. Read-outs that look alike come from different tables or passages of the source.

Legend:
[1] = system: Haemophilus influenzae A21515; experiment: antimicrobial resazurin growth assay, H. influenzae; assay type: cell-based; conditions: 37° C., 4 to 6 hours
Description: (§1) The biological characteristics of compound of Formula (I) were evaluated in Escherichia coli ATCC 610100, Pseudomonas aeruginosa ATCC 614000, Haemophilus influenzae A21515, Staphylococcus aureus, methicillin resistant (MRSA) ATCC 605000, Enterococcus faecalis ATCC 662000, Streptococcus pneumoniae ATCC 661100 and Candida glabrata ATCC 200918. All cultures were maintained in Brain Heart Infusion Medium (Oxoid), except C. glabrata, which was maintained in Potato Dextrose Broth (Difco).
(§2) For antimicrobial assays of E. coli, P. aeruginosa, H. influenzae, MRSA, E. faecalis and S. pneumoniae, the cells in Brain Heart Infusion Medium were added to 96 well plates at a volume of 176 μl/well. The compound to be tested was added to the wells (20 μl/well) together with 10 μl of 0.2 mg/ml resazurin (Sigma). The plates were incubated at 37° C. for 4 to 6 hours. The growth of the cultures was monitored by measuring the fluorescence of the plates using a fluorometer with λex=535 nm and λem=590 nm filters. Resazurin dye without cells was used to determine the background, which was subtracted from the data for all experimental wells. The data were analyzed using Prism software (GraphPad Software). The data were normalized to the average of the cells treated with media only (100% cell growth) and the IC50 values were determined using a standard sigmoidal dose response curve fitting algorithm.

[2] = system: HT-29 (ATCC HTB-38) human colorectal adenocarcinoma; experiment: tumor cytotoxicity assay (resazurin), HT-29; assay type: cell-based; conditions: HT-29, 48 h
Description: HT-29 (ATCC HTB-38) a human colorectal adenocarcinoma was maintained in McCoy's complete medium (McCoy's 5A medium with L-glutamine and 25 mM HEPES supplemented with 10% FBS, 1 mM Na pyruvate, 1X NEAA, 2 mM L-glutamine, and Pen/Strep at 100 IU/ml and 100 μg/ml, respectively). Cell lines were cultured at 37° C., 5% CO2 in a 95% humidified incubator. For tumor cytotoxicity assays HT-29, PC-3, or B16-F10 cells were seeded at 5×10^3, 5×10^3 or 1.25×10^3 cells/well cells were seeded at 5,000 cells/well in 90 μl complete media into a Corning 3904 black-walled, clear-bottom tissue culture plate and the plate were incubated overnight to allow cells to establish and enter log phase growth. Jurkat cells were seeded on the day of compound addition at 2×10^4 cells/well in 90 μl complete media into a Corning 3904 black-walled, clear-bottom tissue culture plate. 20 mM stock solutions of the compound of Formula (I) were prepared in 100% DMSO and stored at −20° C. 10×concentrated serial dilutions of the compounds were prepared in appropriate culture medium for final concentrations ranging from 2×10–5 to 2×10–12. Ten μl volumes of the 10×serial dilutions were added to the test wells in triplicate and the plates returned to the incubator for 48 hours. The final concentration of DMSO was 0.25% in all samples. […] Because living cells metabolize Resazurin, the fluorescence of the reduction product of Resazurin was measured using a Fusion microplate fluorometer (Packard Bioscience) with λex=535 nm and λem=590 nm filters. The plates were removed and resazurin fluorescence was measured using 530 nm excitation and 590 nm emission filters in a Fusion fluorimeter (Packard Instruments). […] The data were analyzed using Prism software (GraphPad Software). The data were normalized to the average of the cells treated with media only (100% cell growth) and EC50 values were determined using a standard sigmoidal dose response curve fitting algorithm.

[3] = system: Staphylococcus aureus (MSSA); experiment: susceptibility assay by broth microdilution (NCCLS), MSSA; assay type: cell-based; conditions: Staphyloccus aureus MSSA
Description: (§3) The anti-infective potential of the compound was re-evaluated in susceptibility assays performed by broth microdilution in accordance with National Committee for Clinical Laboratory Standards (NCCLS) guidelines, M7-A5, January 2000. The compound was tested versus the following microorganisms: Staphylococcus aureus (MSSA), Staphylococcus aureus (MRSA), Streptococcus pneumoniae, vancomycin-sensitive Enterococcus faecalis, Haemophilus influenzae, Pseudomonas aeruginosa and Candida albicans.

[4] = system: vancomycin-sensitive Enterococcus faecalis; experiment: susceptibility assay by broth microdilution (NCCLS), E. faecalis; assay type: cell-based; conditions: Enterococcus faecalis VSE
Description: as §3

[5] = system: Staphylococcus aureus, methicillin resistant (MRSA) ATCC 605000; experiment: antimicrobial resazurin growth assay, MRSA; assay type: cell-based; conditions: 37° C., 4 to 6 hours
Description: as §1, §2

[6] = system: Jurkat (ATCC TIB-152) human acute T cell leukemia; experiment: tumor cytotoxicity assay (resazurin), Jurkat; assay type: cell-based
Description: (§4) Jurkat (ATCC TIB-152) a human acute T cell leukemia was maintained in RPMI complete medium (RPMI 1640 medium supplemented with 10% FBS, 2 mM L-glutamine, 10 mM HEPES, 1 mM Na pyruvate, 1X NEAA, and Pen/Strep at 100 IU/ml and 100 μg/ml, respectively). Cell lines were cultured at 37° C., 5% CO2 in a 95% humidified incubator. For tumor cytotoxicity assays HT-29, PC-3, or B16-F10 cells were seeded at 5×10^3, 5×10^3 or 1.25×10^3 cells/well cells were seeded at 5,000 cells/well in 90 μl complete media into a Corning 3904 black-walled, clear-bottom tissue culture plate and the plate were incubated overnight to allow cells to establish and enter log phase growth. […] Because living cells metabolize Resazurin, the fluorescence of the reduction product of Resazurin was measured using a Fusion microplate fluorometer (Packard Bioscience) with λex=535 nm and λem=590 nm filters. The plates were removed and resazurin fluorescence was measured using 530 nm excitation and 590 nm emission filters in a Fusion fluorimeter (Packard Instruments). […] The data were analyzed using Prism software (GraphPad Software). The data were normalized to the average of the cells treated with media only (100% cell growth) and EC50 values were determined using a standard sigmoidal dose response curve fitting algorithm.

solubility (observation) = assay type: physicochemical
[7] = system: Pseudomonas aeruginosa ATCC 614000; experiment: antimicrobial resazurin growth assay, P. aeruginosa; assay type: cell-based; conditions: ATCC614000, 37° C., 4 to 6 hours
Description: as §1, §2

[8] = system: Escherichia coli ATCC 610100; experiment: antimicrobial resazurin growth assay, E. coli; assay type: cell-based; conditions: ATCC610100, 37° C., 4 to 6 hours
Description: as §1, §2

[9] = system: Staphylococcus aureus (MRSA); experiment: susceptibility assay by broth microdilution (NCCLS), MRSA; assay type: cell-based; conditions: Staphyloccus aureus MRSA
Description: as §3

[10] = system: Candida glabrata ATCC 200918; experiment: antimicrobial resazurin growth assay, C. glabrata; assay type: cell-based; conditions: Nakaseomyces glabratus, ATCC200918; Potato Dextrose medium
[11] = system: Streptococcus pneumoniae 49619; experiment: susceptibility assay by broth microdilution (NCCLS), S. pneumoniae; assay type: cell-based
Description: as §3

[12] = system: Enterococcus faecalis ATCC 662000; experiment: antimicrobial resazurin growth assay, E. faecalis; assay type: cell-based; conditions: ATCC662000, 37° C., 4 to 6 hours
Description: as §1, §2

[13] = system: Haemophilus influenzae 49766; experiment: susceptibility assay by broth microdilution (NCCLS), H. influenzae; assay type: cell-based
Description: as §3

[14] = system: Pseudomonas aeruginosa 27853; experiment: susceptibility assay by broth microdilution (NCCLS), P. aeruginosa; assay type: cell-based; conditions: Pseudomona aeruginosa 27853
Description: as §3

[15] = system: PC-3 (ATCC CRL-1435) human prostate adenocarcinoma; experiment: tumor cytotoxicity assay (resazurin), PC-3; assay type: cell-based; conditions: 48 h, read-out: EC50 for the PC3 assay
Escherichia coli imp = experiment: susceptibility assay by broth microdilution (NCCLS), E. coli; assay type: cell-based
Candida albicans 90028 = experiment: susceptibility assay by broth microdilution (NCCLS), C. albicans; assay type: cell-based
Description: as §3

[16] = system: Streptococcus pneumoniae ATCC 661100; experiment: antimicrobial resazurin growth assay, S. pneumoniae; assay type: cell-based; conditions: ATCC661100, 37° C., 4 to 6 hours
Description: as §1, §2

[17] = system: B16-F10 (ATCC CRL-6475) mouse melanoma; experiment: tumor cytotoxicity assay (resazurin), B16-F10; assay type: cell-based
Description: as §4, with “B16-F10” for “Jurkat”, “CRL-6475)” for “TIB-152)”, “mouse melanoma” for “human acute T cell leukemia”, “in” for “in RPMI”, “DMEM (DMEM” for “medium (RPMI 1640 medium”, “HEPES,” for “HEPES, 1 mM Na pyruvate, 1X NEAA,”

## CCC/C=C/CC1C/C=C/C=C(C)/C=C/C=C\C(O)CC(O)C(O)/C=C/C=C/C=C/C(=O)N1 (stereo not drawn) [compound of Formula (I)]
[1]
  IC50: > 4 µg/mL
[2]; compound alone, read-out: EC50 in the HT-29 assay
  EC50: 0.922 µg/mL and 2.03 µM
[2]; compound with interferon, read-out: EC50 in the HT-29 assay
  EC50: 0.263 µg/mL and 580 nM
[2]; further evaluation (Table 2), read-out: HT-29 EC50
  EC50: 3.62 ± 2.57 µM
[3]
  MLC: >32 µg/mL
[3]; Staphylococcus aureus
  MIC: > 32 µg/mL
[4]
  MIC: 32 µg/mL
  MLC: >32 µg/mL
[5]
  IC50: 1 µg/mL and 2.2 µM
[6]; further evaluation (Table 2), 48 hours, read-out: Jurkat EC50
  EC50: 2330 ± 1110 nM
[6]; one set of evaluations, unit inferred, read-out: EC50 for the Jurkat cells
  EC50: 2330 ± 1110 nM
Solubility (observation)
  solubility: substantially insoluble
[7]
  IC50: > 4 µg/mL
[8]
  IC50: > 4 µg/mL
[9]
  MLC: >32 µg/mL
[9]; Staphylococcus aureus
  MIC: 12 µg/mL
[10]
  IC50: 3 µg/mL and 6.6 µM
[11]
  MIC: 32 µg/mL
  MLC: >32 µg/mL
[12]
  IC50: 3 µg/mL and 6.6 µM
[13]
  MIC: > 32 µg/mL
  MLC: >32 µg/mL
[14]
  MLC: >32 µg/mL
[14]; Pseudomonas aeruginosa
  MIC: > 32 µg/mL
[15]; compound alone
  EC50: 1.29 µg/mL and 2.84 µM
[15]; compound with TNF-α
  EC50: 0.988 µg/mL and 2.18 µM
Escherichia coli imp; Escherichia coli
  MIC: > 32 µg/mL
Escherichia coli imp; Escherichia coli imp
  MLC: >32 µg/mL
Candida albicans 90028
  MIC: > 32 µg/mL
  MLC: >32 µg/mL
[16]
  IC50: 4 µg/mL and 8.8 µM
[17]; further evaluation (Table 2), 48 hours, read-out: B16-F10 EC50
  EC50: 2160 ± 870 nM
[17]; one set of evaluations, unit inferred, read-out: EC50 for the B16-F10 cells
  EC50: 2160 ± 870 nM
